Reference: patent publication US12281123B2, “Benzoxazinone compounds as KLK5/7 dual inhibitors” (MOLECULAR SKIN THERAPEUTICS, INC., priority 2019, dated 2025)
Values joined by “and” are separate entries in the source; they are usually repeats but may differ in a detail not shown here. Identical values can stand only once. Like-named read-outs stand apart in the source and are kept apart here.

Tests used:
Format in all cases: biochemical
Recombinant human KLK5 = target: T1, Recombinant human KLK5 (Homo sapiens, UniProt Q9Y337); test: Recombinant KLK5 chromogenic IC50 assay
T1 construct: purchased SpeedBio (Gaithersburg, MD) / SpeedBioSystems; host or cells: HEK293
T1 sequence (Q9Y337 23-293): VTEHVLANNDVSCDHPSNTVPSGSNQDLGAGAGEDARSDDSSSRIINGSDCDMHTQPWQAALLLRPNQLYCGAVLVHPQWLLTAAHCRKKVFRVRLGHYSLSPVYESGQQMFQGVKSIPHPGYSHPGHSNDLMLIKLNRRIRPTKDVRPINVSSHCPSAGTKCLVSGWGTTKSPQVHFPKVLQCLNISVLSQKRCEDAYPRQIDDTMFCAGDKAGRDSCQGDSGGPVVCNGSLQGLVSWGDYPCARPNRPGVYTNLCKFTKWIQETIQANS
Text: (§1) Human Kallikrein Proteins: Recombinant human KLK5 expressed in HEK293 was obtained from SpeedBio (Gaithersburg, MD). Recombinant proenzyme KLK-7 and recombinant proenzyme KLK-14 both expressed in mouse myeloma cells were from R&D Biosystems (Minneapolis, MN). Plasmin and thrombin were from Haematologic Technologies (Essex Junction, VT). Trypsin and Chymotrypsin were bought from Worthington Biochemical Corporation (Lakewood, NJ) and plasma kallikrein was from Prospec (East Brunswick, NJ). Neutrophil Elastase was obtained from Innovative Research (Peary Court, MI). Bovine recombinant enterokinase expressed in E. coli was bought from Sigma (St. Louis, MI). Matriptase expressed in E. coli was obtained from Enzo Life Sciences (Farmingdale, NY). The control inhibitors Nafamostat mesylate was from Sigma (St. Louis, MI) and (2-(2-fluorophenyl)-5,6,7,8-tetrahydro-4H-benzo[4,5]thieno[2,3-d][1,3]oxazin-4-one was from Interbioscreen (Moskow, Russia).
(§2) Substrates: S-2288 (D-Ile-Pro-Arg-pNA), CS-PSA (MeO-Suc-Arg-Pro-Tyr-pNA), S-2266 (H-D-Val-Leu-Arg-pNA) and S-2288 (H-D-Ile-Pro-Arg-pNA) were bought from Diapharma (West Chester, OH). MeOSuccAla-Ala-Pro-Val-pNA was purchased from Sigma (St Louis, MI). The substrates were dissolved in water at 10 mM and were frozen in aliquots at −20° C.
(§3) Assays: All assays were performed in 384 well polystyrene plates coated overnight with 0.1% Tween 20 at 4° C. The plates were then washed twice with 100 μL water and dried. For the determination of IC50 values, the inhibitors were diluted in serial dilutions of 1:3 intervals into pure DMSO at 50 fold of the intended final concentrations in the assays. Usually eight inhibitor dilutions and one DMSO control were prepared. The substrates were diluted into water at 2.2-fold the final concentration in the assay mixture. The wells of the plate were filled with 50 μL of the enzyme diluted in 2× assay buffer (100 mM Tris, 200 mM NaCl, 0.2% PEG, 0.01% Tween, 2 mM EDTA, pH 8.0) at twofold the intended concentration. Then 5 μL DMSO, 2.2 μL inhibitor and 45 μL substrate were added to start the reaction. The assays were monitored at 37° C. in a multi well plate reader at a wavelength of 405 nm (Molecular Devices, San Jose, CA) for 1 h. The tool inhibitor, nafamostat, was used as a control for trypsin, thrombin, KLK-5 and KLK-14 at 10 μM maximal concentration and (2-(2-fluorophenyl)-5,6,7,8-tetrahydro-4H-benzo[4,5]thieno[2,3-d][1,3]oxazin-4-one for KLK-7 at 5 μM.
(§4) The table summarizes assay conditions for the individual enzymes:
(§5) Data analysis: The progress curves of substrate hydrolysis were analyzed by linear regression of the final 20 min of the reaction. Fit of the dose response of the resulting rates to the following equation yielded the IC50:
(§6) [formula] with 1) c: the background rate at the highest inhibitor concentration; 2) d: the rate of the control reaction; 3) IC50: the IC50 of the inhibitor; 4) x: the inhibitor concentration; and 5) b: the slope.
(§7) Proteases: KLK5 (SpeedBioSystems); KLK7 (R&Dsystems) was activated with enterokinase (2 hours, 37° C.) prior to assay; Trypsin (Sigma Aldrich); Chymotrypsin (Sigma Aldrich); Factor Xa (Haematologic Technologies); Plasmin (Haematologic Technologies); KLK14 (R&Dsystems) was activated with enterokinase (1 hour, 37° C.) prior to assay; Thrombin (Haematologic Technologies); Neutrophil Elastase (Athens Research&Technology); and KLK1 (Prospec).

KLK7 = target: T2, KLK7 (Homo sapiens, UniProt P49862); test: Recombinant KLK7 chromogenic IC50 assay
T2 construct: purchased R&D Biosystems (Minneapolis, MN) / R&Dsystems; host or cells: mouse myeloma cells
Text: as §1, §2
Activation of KLK-7 and KLK-14: 150 μL 8 μM solution of the proenzymes of KLK-7 or KLK-14 in 50 mM Tris, 10 mM CaCl2, 150 mM NaCl, 0.05% (w/v) Brij-35, pH 7.5 were mixed with 150 μL 10 μg/mL bovine enterokinase in the same buffer and incubated for 2 h for KLK-7 and 1 h for KLK-14 at 37° C. After the incubation period, activation was stopped by addition of 6 μL 0.5 M EDTA pH 8.0.
as §3, §4, §5, §6, §7

Trypsin = target: T3, Trypsin (UniProt P00760); test: Chromogenic assay, trypsin; settings: Trypsin 0.1 nM; S-2288 500 μM; highest conc. of 1.001 50 μM
T3 sequence (P00760 1-246): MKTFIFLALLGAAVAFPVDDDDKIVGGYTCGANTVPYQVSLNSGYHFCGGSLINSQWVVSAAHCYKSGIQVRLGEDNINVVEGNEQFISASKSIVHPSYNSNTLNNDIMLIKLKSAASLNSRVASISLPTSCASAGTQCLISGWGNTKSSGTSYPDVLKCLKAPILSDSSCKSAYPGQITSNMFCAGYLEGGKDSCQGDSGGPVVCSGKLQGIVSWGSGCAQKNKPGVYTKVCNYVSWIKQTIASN
Text: as §1, with “Russia). […]” for “Russia).”
(§8) Assays: All assays were performed in 384 well polystyrene plates coated overnight with 0.1% Tween 20 at 4° C. […] The assays were monitored at 37° C. in a multi well plate reader at a wavelength of 405 nm (Molecular Devices, San Jose, CA) for 1 h. […]
(§9) Data analysis: The progress curves of substrate hydrolysis were analyzed by linear regression of the final 20 min of the reaction. […]

Chymotrypsin = Chymotrypsin (Bos taurus, UniProt P00766); test: Chromogenic assay, chymotrypsin
Text: as §1, §2
Assays: All assays were performed in 384 well polystyrene plates coated overnight with 0.1% Tween 20 at 4° C. The plates were then washed twice with 100 μL water and dried. For the determination of IC50 values, the inhibitors were diluted in serial dilutions of 1:3 intervals into pure DMSO at 50 fold of the intended final concentrations in the assays. Usually eight inhibitor dilutions and one DMSO control were prepared. The substrates were diluted into water at 2.2-fold the final concentration in the assay mixture. […] The assays were monitored at 37° C. in a multi well plate reader at a wavelength of 405 nm (Molecular Devices, San Jose, CA) for 1 h. […]
as §9

Plasmin = target: T4, Plasmin (Homo sapiens, UniProt P00747); test: Chromogenic assay, plasmin; settings: Plasmin 1.0 nM; S-2288 500 μM; highest conc. of 1.001 50 μM
T4 construct: purchased Haematologic Technologies (Essex Junction, VT)
Text: as §1, with “Russia). […]” for “Russia).”
as §8, §9

Thrombin = target: T5, Thrombin (Homo sapiens, UniProt P00734); test: Chromogenic assay, thrombin; settings: Thrombin 0.5 nM; S-2288 500 μM; highest conc. of 1.001 100 μM
T5 construct: purchased Haematologic Technologies (Essex Junction, VT)
Text: as §1, with “Russia). […]” for “Russia).”
as §8, §9

KLK1 = target: T6, KLK1 (Homo sapiens, UniProt P06870); test: Chromogenic assay, KLK1; settings: KLK1 10 nM; S-2266 200 μM; highest conc. of 1.001 50 μM
T6 construct: purchased Prospec
Procedure: as §2
as §3, with “The tool inhibitor, nafamostat, was used as a control for trypsin, thrombin, KLK-5 and KLK-14 at 10 μM maximal concentration and (2-(2-fluorophenyl)-5,6,7,8-tetrahydro-4H-benzo[4,5]thieno[2,3-d][1,3]oxazin-4-one for KLK-7 at 5 μM.” left out
as §9

[1] = Chymotrypsin 0.2 nM, CS-PSA 500 μM, highest conc. of 1.001 50 μM

T2 sequence (P49862 30-253): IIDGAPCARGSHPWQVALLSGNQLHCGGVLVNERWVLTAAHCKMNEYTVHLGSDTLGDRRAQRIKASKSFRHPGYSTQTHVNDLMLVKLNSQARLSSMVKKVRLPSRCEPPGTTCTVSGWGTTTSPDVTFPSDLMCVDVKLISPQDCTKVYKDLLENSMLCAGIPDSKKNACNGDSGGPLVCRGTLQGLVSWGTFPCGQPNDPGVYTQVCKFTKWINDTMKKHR
T4 sequence (P00747 581-810 limits assumed, species assumed): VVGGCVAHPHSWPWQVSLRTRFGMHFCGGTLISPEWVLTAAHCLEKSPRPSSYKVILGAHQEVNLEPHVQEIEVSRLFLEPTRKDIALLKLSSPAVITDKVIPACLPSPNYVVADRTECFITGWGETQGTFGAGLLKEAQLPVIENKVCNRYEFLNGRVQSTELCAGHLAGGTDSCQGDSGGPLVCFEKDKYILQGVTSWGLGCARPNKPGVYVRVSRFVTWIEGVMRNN
T4 sequence (P00747 97-580 partner limits assumed, species assumed): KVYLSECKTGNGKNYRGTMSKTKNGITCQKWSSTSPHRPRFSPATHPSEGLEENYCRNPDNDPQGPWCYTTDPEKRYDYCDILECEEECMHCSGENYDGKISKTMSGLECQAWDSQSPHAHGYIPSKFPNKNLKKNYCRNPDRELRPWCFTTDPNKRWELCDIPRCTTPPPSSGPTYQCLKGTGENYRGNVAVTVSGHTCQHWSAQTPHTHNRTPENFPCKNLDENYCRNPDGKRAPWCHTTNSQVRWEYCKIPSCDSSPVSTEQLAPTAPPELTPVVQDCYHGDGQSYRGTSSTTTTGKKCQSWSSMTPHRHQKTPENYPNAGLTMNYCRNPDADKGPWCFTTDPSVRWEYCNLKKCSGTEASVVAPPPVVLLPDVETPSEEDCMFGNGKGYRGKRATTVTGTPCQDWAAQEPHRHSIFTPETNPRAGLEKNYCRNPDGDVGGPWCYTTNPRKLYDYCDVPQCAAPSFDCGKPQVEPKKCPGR
T6 sequence (P06870 25-262): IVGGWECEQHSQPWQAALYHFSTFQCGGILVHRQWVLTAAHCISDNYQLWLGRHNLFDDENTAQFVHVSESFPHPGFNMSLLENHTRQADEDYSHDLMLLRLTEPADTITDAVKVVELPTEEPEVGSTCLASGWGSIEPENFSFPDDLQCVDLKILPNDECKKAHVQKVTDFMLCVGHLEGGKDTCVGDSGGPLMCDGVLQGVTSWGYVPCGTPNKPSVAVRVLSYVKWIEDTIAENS

Row | IC50 (Recombinant human KLK5; Table 2, assay protocol of Example 3, read-out: Recombinant KLK5 enzyme (IC50)) [µM] | IC50 (Recombinant human KLK5; Table 3, KLK5 10 nM, S-2288 500 μM, highest conc. of 1.001 10 μM, read-out: IC50 (μM), KLK5) | Inhibition of KLK5, conclusion in words (Recombinant human KLK5; conclusion from Table 3) | IC50 (KLK7; Table 2, assay protocol of Example 3, read-out: Recombinant KLK7 enzyme (IC50)) [µM] | IC50 (KLK7; Table 3, KLK7 20 nM, CS-PSA 500 μM, highest conc. of 1.001 20 μM, read-out: IC50 (μM), KLK7) | Inhibition of KLK7, conclusion in words (KLK7; conclusion from Table 3) | IC50 (Trypsin) | IC50 (Chymotrypsin; [1]) | Inhibition of Chymotrypsin, conclusion in words (Chymotrypsin; conclusion from Table 3) | IC50 (Plasmin) | IC50 (Thrombin) [µM] | Compound | IC50 (μM), KLK1 (KLK1) | IC50 (μM), KLK5 (Recombinant human KLK5; Table 3, KLK5 10 nM, S-2288 500 μM, highest conc. of 1.001 10 μM) | IC50 (μM), KLK7 (KLK7; Table 3, KLK7 20 nM, CS-PSA 500 μM, highest conc. of 1.001 20 μM) | IC50 (μM), Trypsin (Trypsin) | IC50 (μM), Chymotrypsin (Chymotrypsin; [1]) | IC50 (μM), Plasmin (Plasmin) | IC50 (μM), Thrombin (Thrombin)
1 | 0.21 | 0.176 µM and 0.188 µM | inhibitor | 0.34 | 0.647 µM and 0.693 µM | inhibitor | 1.66 µM and 1.36 µM and 2.2 µM | 0.249 µM and 0.317 µM | inhibitor | 3.36 µM and 4.2 µM | > 10 | CS(=O)(=O)c1cc(CO)ccc1-c1nc2cc3c(cc2c(=O)o1)OCCO3 [Compound 1.001, 2-(4-(Hydroxymethyl)-2-(methylsulfonyl)phenyl)-7,8-dihydro-4H-[1,4]dioxino[2′,3′:4,5]benzo[1,2-d][1,3]oxazin-4-one] | No inhibition |  |  |  |  |  | 
2 |  |  |  |  |  |  |  |  |  |  |  | CS(=O)(=O)c1cc(CO)ccc1C(=O)Nc1cc2c(cc1C(=O)O)OCCO2 [Compound 408, reference compound] | No inhibition | No inhibition | No inhibition | No inhibition | No inhibition | No inhibition | No inhibition
